Laboratory results: patent US8632914B2, “Triazolium and imidazolium salts and uses thereof” (University Health Network, priority 2008, dated 2014)
Like-named read-outs stand apart in the source and are kept apart here.

Key:
CHO cells = assay: Viability of CHO cells (MTT); assay type: cell-based; settings: Cricetulus griseus, read-out: IC50 (μM) CHO cells
Procedure: CHO cells (ATCC, Manassas, Va.) were grown in RPMI-1640 supplemented with 10% fetal calf serum (Sigma, St. Louis, Mo.), 25 mM HEPES and gentimicin (RPMI-10). Cells were seeded in 96 well plates and grown to 50% confluency in 100 μL of RPMI-10 per well prior to the addition of either DMSO alone, or a 10 mg/mL solution of a test compound of the disclosure in DMSO. Compound gradients were prepared by adding 90 μL of RPMI-10 mixed with 10 μL of compound solution to the first well in the series, mixing, transferring 100 μL to the next well, and repeating until the next-to-last well was reached. After 48 hrs, the viability of the cells was determined by discarding the media in the wells and adding 100 μL of 10 mg/mL of 3-[4,5-dimethylthiazol-2-yl]-2,5-diphenyltetrazolium bromide (MTT, Sigma, St. Louis, Mo.) in RPMI-10, incubating the plates for a further hour, and then removing the media and adding 100 μL of DMSO and reading the absorbance at 650 nm (Campling, B. G.; Pym, J.; Galbraith, P. R.; Cole, S. P. Leuk Res 1988, 12(10), 823). The IC50 values of individual compounds were determined using a non-linear regression analysis of the dose-response curve using the computer program SigmaPlot (Jandel Scientific) and are reported in Table 1.

P. falciparum = assay: Anti-Plasmodium activity: viability of P. falciparum cultures (pLDH enzyme assay); assay type: cell-based; settings: read-out: IC50 (μM) P. falciparum
Procedure: P. falciparum cultures were grown in O+ blood obtained by venipuncture of volunteers. Cultures of the laboratory line ItG were maintained by the method of Trager and Jensen (Trager, W.; Jensen, J. Science 1976, 193, 673) using RPM, 1640 supplemented with 10% human serum (a kind gift obtained under ethical consent from the Chemo Day Care department of the Princess Margaret Hospital, Toronto, Canada) and 50 μM hypoxanthine (RPMI-A). The effects of the test compounds on the viability of P. falciparum cultures were determined using a Lactate Dehydrogenase (LDH) enzyme assay specific to the enzyme found in Plasmodium falciparum (pLDH) (Prudhomme, J. G.; Sherman, I. W. J Immunol Methods 1999, 229(1-2), 169; Makler, M. T.; Ries, J. M.; Williams, J. A.; Bancroft, J. E.; Piper, R. C.; Gibbins, B. L.; Hinrichs, D. J. Am J Trop Med Hyg 1993, 48(6), 739). Briefly, compounds to be tested were dissolved in DMSO afford a solution having a concentration of 10 mg/mL. Two-fold serial dilutions were then produced in 50 μL of RPMI-A in a 96 well plate and then 50 μL of parasite culture (2% hematocrit, 2% parasitemia) were added to each well and the plates were then incubated at 37° C. in 95% N2, 3% CO2, and 2% O2 for 72 hr. The contents of the wells were then re-suspended using a multi-channel pipettor and a 15 μL sample was removed from each well and was added to 100 μL of pLDH enzyme assay mixture (Prudhomme, J. G.; Sherman, I. W. J Immunol Methods 1999, 229(1-2), 169). After 1 hr the absorbance of the wells at 650 nm was determined using a ThermoMax microplate reader (Molecular Devices, Sunnyvale, Calif.). The IC50 values of individual compounds were determined using a non-linear regression analysis of the data^19 using the computer program SigmaPlot (Jandel Scientific) and are reported in Table 1. The IC50 values represent the mean±standard error calculated from four independent determinations. To verify if the poor viability of the cultures was related to inhibited merozoite invasion, samples were taken from treated wells and the presence of extracellular merozoites was confirmed by microscopy.

[1] = parameters: species or system mice; settings: mouse, in vivo
Procedure: (§1) Groups of 5 female Balb/C mice were infected with 10^6 P. berghei parasites i.p. and the parasitemia was estimated daily by examining a Giemsa-stained blood film. Once parasites were observed mice were infused once daily with saline alone (control groups) or with 18 ug/day of QT72, 18 ug/day of QT69, 0.24 ug/day of QT98, 60 ug/day of QT109, 9 ug/day of QT119, 7.5 ug/day of QT124 or 450 ug/day of chloroquine (CQ) for three days, as indicated by the arrows in FIG. 1. Average parasitemias are shown in FIG. 1 with standard error of the mean for each experimental group indicated by bars. The separate graphs in FIG. 1 indicate the results of two separate experiments.

P. berghei parasites = assay: In vivo evaluation: parasitemia in mice infected with P. berghei; parameters: species or system P. berghei in female Balb/C mice
Procedure: as §1

[2] = tested on: P. falciparum ItG cultures; assay: Effect on synchronized ItG P. falciparum cultures (Giemsa stained blood films); assay type: cell-based; settings: 20 uM; cultures synchronized at mature stage; 24 hrs incubation
Procedure: The culture was allowed to incubate for 24 hrs before samples were withdrawn and used to produce Giemsa stained blood films.

[3] = CHO cells, 48 hrs, MTT, mean of four determinations ± standard error
[4] = strain line ItG, 72 hr incubation, pLDH assay, mean of four determinations ± standard error

Cl.Cl.c1cn(CCCCCCCCCCn2ccnc2)cn1
melting point: 143 to 144 °C

C[n+]1ccn(CCCCCCCCCCCCCCCCCCCCn2cc[n+](C)c2)c1 [QT116, 1,20-Bis-(3-methylimidazolium-1-yl)eicosane diiodide]
IC50 (CHO cells; [3]): 1.4 ± 0.2 µM
melting point: 78 to 80 °C
IC50 (P. falciparum; [4]): 0.0021 ± 0.0005 µM

c1cn(CCCCCCCCCCCCCCCCCCCCn2ccnc2)cn1 [QT-115, 1,20-Bis-(1H-imidazol-1-yl)eicosane]
melting point: 58 to 59 °C

C[n+]1ccn(CCCCCCCCCCCCCn2cc[n+](C)c2)c1 [QT109, 1,13-Bis-(3-methylimidazolium-1-yl)tridecane diiodide]
adverse effects on the health of the mice [1]: no adverse effects on the health of the mice were observed
IC50 (CHO cells; [3]): 51 ± 11 µM
IC50 (P. falciparum; [4]): 0.007 ± 0.003 µM

C[n+]1ccn(CCCCCCn2cc[n+](C)c2)c1 [QT87, 1,6-Bis-(3-methylimidazolium-1-yl)hexane diiodide]
IC50 (CHO cells; [3]): 146 ± 14 µM
melting point: 156 to 157 °C
IC50 (P. falciparum; [4]): 2.6 ± 0.8 µM

Cl.Cl.c1cn(CCCCCCCCCCCCCCCn2ccnc2)cn1
melting point: 98 to 99 °C

CCC[n+]1ccn(CCCCCCCCCCCCn2cc[n+](CCC)c2)c1 [QT119, 1,12-Bis(3-propylimidazolium-1-yl)dodecane diiodide]
adverse effects on the health of the mice [1]: no adverse effects on the health of the mice were observed
parasitemia vs saline control (P. berghei parasites; 9 ug/day infused once daily for three days, second experiment, day 14 (P<0.10), day 15 (P<0.03)): significantly lower
IC50 (CHO cells; [3]): 78 ± 14 µM
IC50 (P. falciparum; [4]): 0.0008 ± 0.0001 µM

Cl.Cl.c1cn(CCCCCCn2ccnc2)cn1
melting point: 220 to 221 °C

C[n+]1cnn(CCCCCCCCCCCCn2c[n+](C)cn2)c1 [QT124, 1,12-Bis(4-methyl-1H-1,2,4-triazolium-1-yl)dodecane diiodide]
adverse effects on the health of the mice [1]: no adverse effects on the health of the mice were observed
IC50 (CHO cells; [3]): 52 ± 9 µM
IC50 (P. falciparum; [4]): 0.00016 ± 5e-05 µM

Fc1ccc(Cn2cc[n+](Cc3ccc(F)cc3)c2)cc1 [QT92, 1,3-Bis-(4-fluorobenzyl)imidazolium bromide]
IC50 (CHO cells; [3]): 56 ± 4 µM
IC50 (P. falciparum; [4]): 17 ± 3 µM

Clc1ccccc1Cn1cc[n+](Cc2ccccc2Cl)c1 [QT90, 1,3-Bis-(2-chlorobenzyl)imidazolium bromide]
IC50 (CHO cells; [3]): 110 ± 23 µM
IC50 (P. falciparum; [4]): 2 ± 0.2 µM

c1ccc(Cn2cc[n+](Cc3ccc4ccccc4c3)c2)cc1 [QT69, 1-Benzyl-3-(naphthalen-2-yl-methyl)imidazolium bromide]
parasitemia vs saline control (P. berghei parasites; 18 ug/day infused once daily for three days, day 6 (P<0.10), day 7 (P<0.01), day 8 (P<0.01)): significantly lower
IC50 (CHO cells; [3]): 108 ± 6 µM
IC50 (P. falciparum; [4]): 0.9 ± 0.2 µM
parasite forms in Giemsa stained blood films [2]: parasite forms were seen associated with the outside of the red cells

CCN(CC)CCCC(C)Nc1ccnc2cc(Cl)ccc12 (centres unmarked) [chloroquine, reference compound]
parasitemia vs saline control (P. berghei parasites; 450 ug/day infused once daily for three days, second experiment, all days following day 6 (P<0.02)): significantly lower

Ic1ccc(Cn2cc[n+](Cc3ccc(I)cc3)c2)cc1 [QT78, 1,3-Bis-(4-iodobenzyl)imidazolium bromide]
IC50 (CHO cells; [3]): 33 ± 1 µM
IC50 (P. falciparum; [4]): 0.35 ± 0.06 µM

C[n+]1ccn(-c2ccc(-c3ccc(-n4cc[n+](C)c4)cc3)cc2)c1 [QT98, 4,4′-Bis-(3-methyl-1H-imidazolium-1-yl)biphenyl diiodide]
parasitemia vs saline control (P. berghei parasites; 0.24 ug/day infused once daily for three days, day 7 (P<0.05)): significantly lower
IC50 (CHO cells; [3]): 9 ± 2 µM
IC50 (P. falciparum; [4]): 0.009 ± 0.001 µM

C[n+]1ccn(CCCCCCCCCCCCn2cc[n+](C)c2)c1 [QT89, 1,12-Bis-(3-methylimidazolium-1-yl)dodecane diiodide]
IC50 (CHO cells; [3]): 26 ± 5 µM
IC50 (P. falciparum; [4]): 0.009 ± 0.001 µM

C[n+]1ccn(-c2ccc(-n3cc[n+](C)c3)cc2)c1 [QT114, 1,4-Bis-(3-methylimidazolium-1-yl)benzene diiodide]
IC50 (CHO cells; [3]): 317 ± 64 µM
IC50 (P. falciparum; [4]): 11.2 ± 0.5 µM

Clc1ccc(Cn2cc[n+](Cc3ccc(Cl)cc3)c2)cc1 [QT80, 1,3-Bis-(4-chlorobenzyl)imidazolium chloride]
IC50 (CHO cells; CHO, 48 h): 105 ± 1 µM
IC50 (P. falciparum; 72 h): 9 ± 2 µM

O=[N+]([O-])c1ccc(C[n+]2ccn(-c3ccc(-c4ccc(-n5cc[n+](Cc6ccc([N+](=O)[O-])cc6)c5)cc4)cc3)c2)cc1 [QT103, 4,4′-Bis-[3-(4-nitrobenzyl)-1H-imidazolium-1-yl]biphenyl dibromide]
IC50 (CHO cells; [3]): 14 ± 2 µM
IC50 (P. falciparum; [4]): 0.026 ± 0.003 µM

Cl.Cl.c1cn(CCCCCCCCn2ccnc2)cn1
melting point: 176 to 177 °C

C[n+]1ccn(Cc2ccc(-c3ccc(Cn4cc[n+](C)c4)cc3)cc2)c1 [QT113, 4,4′-Bis-(3-methylimidazolium-1-yl-methyl)biphenyl diiodide]
IC50 (CHO cells; [3]): 125 ± 13 µM
IC50 (P. falciparum; [4]): 0.12 ± 0.04 µM

C[n+]1cn(-c2ccc(-c3ccc(-n4c[n+](C)c5ccccc54)cc3)cc2)c2ccccc21 [QT110, 4,4′-Bis-(3-methylbenzimidazolium-1-yl)biphenyl diiodide]
IC50 (CHO cells; [3]): 98 ± 24 µM
IC50 (P. falciparum; [4]): 0.07 ± 0.01 µM

Cl.Cl.c1cn(CCCCCCCCCCCCCCn2ccnc2)cn1
melting point: 142 to 143 °C

COc1ccc(Cn2cc[n+](Cc3ccc(OC)cc3)c2)cc1 [QT79, 1,3-Bis-(4-methoxybenzyl)imidazolium chloride]
IC50 (CHO cells; CHO, 48 h): 30.6 ± 0.7 µM
IC50 (P. falciparum; 72 h): 5 ± 1 µM
